Results published in PMC7582770, “Synthesis of “All-Cis” Trihydroxypiperidines from a Carbohydrate-Derived Ketone: Hints for the Design of New β-Gal and GCase Inhibitors” (Molecules, 2020).
Entries after “also recorded” stand apart in the source; their conditions may differ.

Tests used:
[1] = biological target: T1, human lysosomal β-galactosidase (β-Gal) (Homo sapiens, UniProt P16278); test: β-Gal inhibition in human leukocyte homogenates; type: biochemical; settings: compounds 1 mM; human leukocytes extracts
T1 construct: in leukocytes isolated from healthy donors (controls); endogenous in cells; host or cells: human leukocytes from healthy donors, disrupted by sonication (crude homogenate)
T1 sequence (P16278 29-677): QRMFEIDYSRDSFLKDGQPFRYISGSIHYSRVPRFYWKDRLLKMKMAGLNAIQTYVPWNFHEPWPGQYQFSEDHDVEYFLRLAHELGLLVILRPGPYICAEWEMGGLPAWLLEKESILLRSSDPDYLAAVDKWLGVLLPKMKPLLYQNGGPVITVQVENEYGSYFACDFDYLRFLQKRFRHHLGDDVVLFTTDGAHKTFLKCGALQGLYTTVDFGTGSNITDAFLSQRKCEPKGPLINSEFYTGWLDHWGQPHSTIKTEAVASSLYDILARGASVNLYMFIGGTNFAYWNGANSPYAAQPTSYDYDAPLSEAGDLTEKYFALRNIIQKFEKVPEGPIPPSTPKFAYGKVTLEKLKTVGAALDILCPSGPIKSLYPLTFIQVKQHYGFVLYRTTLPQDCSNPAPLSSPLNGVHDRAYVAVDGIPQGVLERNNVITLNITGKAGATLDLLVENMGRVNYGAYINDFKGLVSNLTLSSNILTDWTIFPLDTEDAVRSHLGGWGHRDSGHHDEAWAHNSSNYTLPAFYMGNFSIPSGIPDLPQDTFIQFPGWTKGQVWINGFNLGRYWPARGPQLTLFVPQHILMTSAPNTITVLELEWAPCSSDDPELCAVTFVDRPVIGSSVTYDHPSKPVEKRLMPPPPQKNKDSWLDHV
Protocol: The new compounds were screened at 1 mM concentration towards β-galactosidase (β-Gal) and β-glucosidase (GCase) in leukocytes isolated from healthy donors (controls). Isolated leukocytes were disrupted by sonication, and a Micro BCA Protein Assay Kit (Sigma–Aldrich, St. Louis, MO, USA) was used to determine the total protein amount for the enzymatic assay, according to the manufacturer’s instructions.
β-Gal activity was measured in a flat-bottomed 96-well plate. Azasugar solution (3 μL), 4.29 μg/μL leukocytes homogenate 1:10 (7 μL), and substrate 4-methylumbelliferyl β-D-galactopyranoside (1.47 mM, 20 μL, Sigma–Aldrich) in acetate buffer (0.1 M, pH 4.3) containing NaCl (0.1 M) and sodium azide (0.02%) were incubated at 37 °C for 1 h. The reaction was stopped by addition of sodium carbonate (200 μL; 0.5 M, pH 10.7) containing Triton X-100 (0.0025%), and the fluorescence 4-methylumbelliferone released by β-galactosidase activity was measured in SpectraMax M2 Microplate Reader (λex = 365 nm and λem = 435 nm; Molecular Devices LLC, San Jose, CA, US). Inhibition is given with respect to the control (without azasugar). Data are mean SD (n = 3).

[2] = tested on: human fibroblasts derived from Gaucher patients; test: Toxicity / cell viability in Gaucher patient fibroblasts during chaperoning assay; type: cell-based; settings: at 50 and 100 µM, 4 days
Protocol: Fibroblasts with the N370S/RecNcil mutation from patients with Gaucher disease were obtained from the “Cell line and DNA Biobank from patients affected by Genetic Diseases” (Gaslini Hospital, Genova, Italy). Fibroblasts cells (15.0 × 10^4) were seeded in T25 flasks with DMEM supplemented with fetal bovine serum (10%), penicillin/streptomycin (1%), and glutamine (1%) and incubated at 37 °C with 5% CO2 for 24 h. The medium was removed, and fresh medium containing compound 10 was added to the cells and left for 4 days. The medium was removed, and the cells were washed with PBS and detached with trypsin to obtain cell pellets, which were washed four times with PBS, frozen, and lysed by sonication in water. Enzyme activity was measured as reported above. Reported data are mean S.D. (n = 2).
Pharmacological chaperoning activity
Fibroblasts with the N370S/RecNcil mutation from Gaucher disease patients were obtained from the “Cell line and DNA Biobank from patients affected by Genetic Diseases” (Gaslini Hospital, Genova, Italy). Fibroblasts cells (20.0 x 104) were seeded in T25 flasks with DMEM supplemented with fetal bovine serum (10%), penicillin/streptomycin (1%), and glutamine (1%) and incubated at 37 °C with 5% CO2 for 24 h. […] Enzyme activity was measured as reported above. […]

Row | SMILES | inhibition at 1000 µM [1] [%] | melting point [°C] | toxicity / cell viability [2]
1 | CCCCCCCCCO[C@H]1CNC[C@@H](O)[C@H]1O [compound 9, (3S, 4R, 5R)-4,5-Dihydroxy-3-(Nonyloxy) Piperidine] | 22 | – | –
2 | CCCCCCCCCCCCN[C@H]1CNC[C@@H](O)[C@H]1O [compound 10, (3R, 4S, 5S)-3,4-Dihydroxy-5-(Dodecylamino) Piperidine] | 0 | 92 to 94 | low cell viability; also recorded: remarkable toxicity
3 | CCCCCCCC[C@]1(O)CNC[C@@H](O)[C@H]1O [compound 12, (3S, 4R, 5R)-3,4,5-Trihydroxy-3-Octyl-Piperidine] | 0 | – | –
4 | CCCCCCCCCO[C@@H]1CNC[C@@H](O)[C@H]1O [compound 21, (3R, 4R, 5R)-4,5-Dihydroxy-3-(Nonyloxy) Piperidine] | 0 | – | –
